Values quoted from earlier work in patent US12691049B2, “Process for producing hair treatment products by mixing organic C1-C6-alkoxysilanes and alkalizing agents in specific molar ratios” (Henkel AG & Co. KGaA, priority 2021, dated 2026).

Compound | solubility in water (25° C.) | other results
mixture of the sodium salts of mono and sis-sulfonic acids of 2-(2-quinolyl)-1H-indene-1,3(2H)-dione [Acid Yellow 3] | 20 mg/mL | 
O=C([O-])c1c(Cl)c(Cl)c(Cl)c(Cl)c1-c1c2cc(Br)c(=O)c(Br)c-2oc2c(Br)c([O-])c(Br)cc12.[Na+].[Na+] [Acid Red 92, disodium salt of 3,4,5,6-tetrachloro-2-(1,4,5,8-tetrabromo-6-hydroxy-3-oxanthene-9-yl) benzoic acid] | greater than 10 g/L | 
CCN(Cc1cccc(S(=O)(=O)[O-])c1)c1ccc(C(=C2C=CC(=[N+](CC)Cc3cccc(S(=O)(=O)[O-])c3)C=C2)c2ccccc2S(=O)(=O)[O-])cc1.[Na+].[Na+] [Acid Blue 9] |  | water solubility (25° C.): more than 20 wt %
Nc1cc(S(=O)(=O)[O-])cc2cc(S(=O)(=O)[O-])c(N=Nc3ccccc3)c(O)c12.[Na+].[Na+] [Acid Red 33, disodium salt of 5-amino-4-hydroxy-3-(phenylazo)-naphthalene-2,7-disulfonate] | 2.5 mg/mL | 
O=C([O-])C1=NN(c2ccc(S(=O)(=O)[O-])cc2)C(=O)C1N=Nc1ccc(S(=O)(=O)[O-])cc1.[Na+].[Na+].[Na+] (stereo not drawn) [Acid Yellow 23, trisodium salt of 4,5-dihydro-5-oxo-1-(4-sulfophenyl)-4-((4-sulfophenyl)azo)-1H-pyrazole-3-carboxylic acid] |  | solubility in water (in words) (at 25° C.): readily soluble in water
O=S(=O)([O-])c1ccc(N=Nc2c(O)ccc3ccccc23)cc1.[Na+] [Acid Orange 7, sodium salt of 4-[(2-hydroxy-1-naphthyl)azo]benzene sulphonate] | more than 7 g/L | 
